# Several values for one entry are separate records, joined by “and”; a condition that tells them apart may be missing. Identical values can stand only once. Like-named read-outs stand apart in the source and are kept apart here.
# What was measured:
# CypA = biological target: T1, CypA (Homo sapiens, UniProt P62937); experiment: Chymotrypsin coupled prolyl-isomerase assay; type: biochemical; conditions: for prolyl-isomerase activity (raw dose-response value): CypA, in s^-1
# T1 construct: PPIA (UniProtKB Entry P62937: residues 1–165); made in house; host or cells: E. coli BL21(DE3)
# T1 sequence (P62937 whole entry, the tested form may be a part): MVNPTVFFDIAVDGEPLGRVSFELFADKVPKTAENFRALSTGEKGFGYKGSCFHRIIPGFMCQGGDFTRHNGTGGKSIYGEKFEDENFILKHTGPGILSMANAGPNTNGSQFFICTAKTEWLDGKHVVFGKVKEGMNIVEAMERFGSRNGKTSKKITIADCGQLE
# Procedure, shortened: (§1)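 Cyclophilin (5 nM final) in 25 mM HEPES pH 7.3, 100 mM NaCl, 0.01% Triton X-100 was preincubated with compound (0.25% DMSO) 5 min at 2–3 °C, then with 25 µM α-chymotrypsin 5 min. Suc-AAPF-AMC (5 µM, in LiCl/trifluoroethanol) started the reaction; AMC fluorescence read every 1 s for 330 s.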
# CypC = biological target: T2, CypC (Homo sapiens, UniProt P45877); experiment: Chymotrypsin coupled prolyl-isomerase assay; type: biochemical; conditions: for prolyl-isomerase activity (raw dose-response value): CypC, in s^-1
# T2 construct: PPIC (UniProtKB Entry P45877: residues 24–212); host or cells: E. coli BL21(DE3)
# T2 sequence (P45877 24-212): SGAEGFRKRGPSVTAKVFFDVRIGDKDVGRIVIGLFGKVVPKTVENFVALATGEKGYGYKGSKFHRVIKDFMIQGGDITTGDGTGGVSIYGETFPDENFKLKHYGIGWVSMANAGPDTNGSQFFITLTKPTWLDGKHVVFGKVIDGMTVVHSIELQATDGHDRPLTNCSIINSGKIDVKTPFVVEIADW
# Procedure, shortened: as §1
# CypE = biological target: T3, CypE (Homo sapiens, UniProt Q9UNP9); experiment: Chymotrypsin coupled prolyl-isomerase assay; type: biochemical; conditions: for prolyl-isomerase activity (raw dose-response value): CypE, in s^-1
# T3 construct: PPIE (UniProtKB Entry Q9UNP9: residues 131–301); host or cells: E. coli BL21(DE3)
# T3 sequence (Q9UNP9 131-301): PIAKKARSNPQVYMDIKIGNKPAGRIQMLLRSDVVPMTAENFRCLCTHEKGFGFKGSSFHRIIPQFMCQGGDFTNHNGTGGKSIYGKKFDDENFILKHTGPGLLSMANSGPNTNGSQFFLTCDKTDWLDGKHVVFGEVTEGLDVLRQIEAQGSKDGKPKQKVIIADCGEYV
# Procedure, shortened: as §1
# CypG = biological target: T4, CypG (Homo sapiens, UniProt Q13427); experiment: Chymotrypsin coupled prolyl-isomerase assay; type: biochemical; conditions: for prolyl-isomerase activity (raw dose-response value): CypG, in s^-1
# T4 construct: PPIG (UniProtKB Entry Q13427: residues 1–179); His6 with thrombin site (pET28a LIC leader) (N); host or cells: E. coli BL21(DE3)
# T4 sequence (Q13427 1-179): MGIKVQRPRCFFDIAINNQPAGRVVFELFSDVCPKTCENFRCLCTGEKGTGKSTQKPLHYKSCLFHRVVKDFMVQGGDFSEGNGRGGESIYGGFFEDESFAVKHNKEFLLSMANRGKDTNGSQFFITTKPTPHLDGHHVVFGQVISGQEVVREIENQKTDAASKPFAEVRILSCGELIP
# Procedure, shortened: as §1
# CypH = biological target: T5, CypH (Homo sapiens, UniProt O43447); experiment: Chymotrypsin coupled prolyl-isomerase assay; type: biochemical; conditions: for prolyl-isomerase activity (raw dose-response value): CypH
# T5 construct: PPIH (UniProtKB Entry O43447: residues 1–177); His6 with TEV site (2BT vector leader) (N); made in house; host or cells: E. coli BL21(DE3)
# T5 sequence (O43447 whole entry, the tested form may be a part): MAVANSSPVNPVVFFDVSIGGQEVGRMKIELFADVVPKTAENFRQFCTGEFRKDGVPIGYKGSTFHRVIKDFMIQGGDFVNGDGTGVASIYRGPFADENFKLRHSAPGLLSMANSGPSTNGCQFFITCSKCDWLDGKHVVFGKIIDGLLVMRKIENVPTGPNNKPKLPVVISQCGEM
# Procedure, shortened: as §1
# CypB = biological target: T6, CypB (Homo sapiens, UniProt P23284); experiment: biochemical; conditions: for prolyl-isomerase activity (raw dose-response value): CypB
# T6 construct: PPIB (UniProtKB Entry P23284: residues 34–216); His6 with TEV site (2BT vector leader) (N); made in house; host or cells: E. coli BL21(DE3)
# T6 sequence (P23284 34-216): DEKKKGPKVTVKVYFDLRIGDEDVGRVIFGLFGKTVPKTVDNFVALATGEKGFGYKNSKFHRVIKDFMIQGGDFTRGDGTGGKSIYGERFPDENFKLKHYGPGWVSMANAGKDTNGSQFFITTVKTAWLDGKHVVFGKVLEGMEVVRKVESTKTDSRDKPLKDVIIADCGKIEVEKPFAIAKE
# Procedure, shortened: as §1
# Cyp40 = Cyp40 (Homo sapiens, UniProt Q08752); experiment: Chymotrypsin coupled prolyl-isomerase assay; conditions: for prolyl-isomerase activity (raw dose-response value): in s^-1
# Sequence of Cyp40 (Q08752 1-183): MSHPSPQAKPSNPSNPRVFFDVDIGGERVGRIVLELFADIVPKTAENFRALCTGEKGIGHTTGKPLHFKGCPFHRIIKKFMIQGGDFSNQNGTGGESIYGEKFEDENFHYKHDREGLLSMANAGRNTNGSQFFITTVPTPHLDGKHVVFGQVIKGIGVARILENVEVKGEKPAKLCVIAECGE
# Procedure, shortened: as §1
# NKTR = biological target: T7, NKTR (Homo sapiens, UniProt P30414); experiment: Chymotrypsin coupled prolyl-isomerase assay; type: biochemical; conditions: for prolyl-isomerase activity (raw dose-response value): NKTR
# T7 construct: NKTR (UniProtKB Entry P30414: residues 7–179); host or cells: E. coli BL21(DE3)
# T7 sequence (P30414 7-179): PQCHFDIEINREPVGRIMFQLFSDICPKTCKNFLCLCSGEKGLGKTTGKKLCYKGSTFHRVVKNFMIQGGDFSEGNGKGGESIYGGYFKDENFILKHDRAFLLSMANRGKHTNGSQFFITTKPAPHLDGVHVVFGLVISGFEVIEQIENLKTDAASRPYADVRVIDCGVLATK
structure (smiles),measurement,setting,value
NCCOCCNC(=O)[C@@H]1CCNC(=O)/C=C/C(=O)N2CCC[C@](Cc3ccccc3)(C2)C(=O)N[C@@H](Cc2ccc(-c3ccccc3)cc2)C(=O)NCc2ccccc2CC(=O)N1 [Compound B2],prolyl-isomerase activity (raw dose-response value),CypA; dose 0.00457247 µM,0.09251 and 0.1054 and 0.1209
same,prolyl-isomerase activity (raw dose-response value),CypA; dose 0.0137174 µM,0.07185 and 0.09383 and 0.08908
same,prolyl-isomerase activity (raw dose-response value),CypA; dose 0.0411523 µM,0.0832 and 0.08759 and 0.09561
same,prolyl-isomerase activity (raw dose-response value),CypA; dose 0.123457 µM,0.08468 and 0.0712 and 0.08817
same,prolyl-isomerase activity (raw dose-response value),CypA; dose 0.37037 µM,0.0566 and 0.04501 and 0.06387
same,prolyl-isomerase activity (raw dose-response value),CypA; dose 1.11111 µM,0.03625 and 0.03272 and 0.04381
same,prolyl-isomerase activity (raw dose-response value),CypA; dose 3.33333 µM,0.02153 and 0.02404 and 0.02804
same,prolyl-isomerase activity (raw dose-response value),CypA; dose 10 µM,0.01608 and 0.01935 and 0.02238
same,IC50,"CypA; wild-type CypA, read-out: Wild-Type Cyclophilin Prolyl Isomerase Inhibition IC50 Values, CypA",0.24 µM
same,prolyl-isomerase activity (raw dose-response value),CypC; dose 0.00976562 µM,0.05723 and 0.05806 and 0.05564
same,prolyl-isomerase activity (raw dose-response value),CypC; dose 0.0195312 µM,0.05812 and 0.0569 and 0.05659
same,prolyl-isomerase activity (raw dose-response value),CypC; dose 0.0390625 µM,0.05511 and 0.05318 and 0.05171
same,prolyl-isomerase activity (raw dose-response value),CypC; dose 0.078125 µM,0.04827 and 0.04606 and 0.04304
same,prolyl-isomerase activity (raw dose-response value),CypC; dose 0.15625 µM,0.04287 and 0.04429 and 0.04035
same,prolyl-isomerase activity (raw dose-response value),CypC; dose 0.3125 µM,0.03472 and 0.03475 and 0.034
same,prolyl-isomerase activity (raw dose-response value),CypC; dose 0.625 µM,0.02805 and 0.0282 and 0.0272
same,prolyl-isomerase activity (raw dose-response value),CypC; dose 1.25 µM,0.02258 and 0.02214 and 0.02094
same,prolyl-isomerase activity (raw dose-response value),CypC; dose 2.5 µM,0.01704 and 0.018 and 0.01642
same,prolyl-isomerase activity (raw dose-response value),CypC; dose 5 µM,0.01304 and 0.01485 and 0.01185
same,prolyl-isomerase activity (raw dose-response value),CypC; dose 10 µM,0.009494 and 0.009626 and 0.009002
same,IC50,"CypC; wild-type CypC, read-out: Wild-Type Cyclophilin Prolyl Isomerase Inhibition IC50 Values, CypC",0.38 µM
same,prolyl-isomerase activity (raw dose-response value),CypE; dose 0.00976562 µM,0.1022 and 0.09371 and 0.09482
same,prolyl-isomerase activity (raw dose-response value),CypE; dose 0.0195312 µM,0.1041 and 0.09004 and 0.09109
same,prolyl-isomerase activity (raw dose-response value),CypE; dose 0.0390625 µM,0.08953 and 0.08464 and 0.08549
same,prolyl-isomerase activity (raw dose-response value),CypE; dose 0.078125 µM,0.08163 and 0.08105 and 0.08006
same,prolyl-isomerase activity (raw dose-response value),CypE; dose 0.15625 µM,0.07541 and 0.07108 and 0.06602
same,prolyl-isomerase activity (raw dose-response value),CypE; dose 0.3125 µM,0.0578 and 0.05386 and 0.0523
same,prolyl-isomerase activity (raw dose-response value),CypE; dose 0.625 µM,0.04345 and 0.04205 and 0.03853
same,prolyl-isomerase activity (raw dose-response value),CypE; dose 1.25 µM,0.03208 and 0.02851 and 0.02629
same,prolyl-isomerase activity (raw dose-response value),CypE; dose 2.5 µM,0.02324 and 0.0218 and 0.01925
same,prolyl-isomerase activity (raw dose-response value),CypE; dose 5 µM,0.01397 and 0.01461 and 0.01313
same,prolyl-isomerase activity (raw dose-response value),CypE; dose 10 µM,0.008566 and 0.009565 and 0.009677
same,IC50,"CypE; wild-type CypE, read-out: Wild-Type Cyclophilin Prolyl Isomerase Inhibition IC50 Values, CypE",0.3 µM
same,prolyl-isomerase activity (raw dose-response value),CypG; dose 6.25 µM,0.07439 and 0.0801 and 0.0712
same,prolyl-isomerase activity (raw dose-response value),CypG; dose 12.5 µM,0.06556 and 0.07016 and 0.06297
same,prolyl-isomerase activity (raw dose-response value),CypG; dose 25 µM,0.0539 and 0.06023 and 0.05271
same,prolyl-isomerase activity (raw dose-response value),CypG; dose 50 µM,0.04026 and 0.03816 and 0.04547
same,prolyl-isomerase activity (raw dose-response value),CypG; dose 100 µM,0.02765 and 0.03143
same,IC50,"CypG; wild-type CypG, read-out: Wild-Type Cyclophilin Prolyl Isomerase Inhibition IC50 Values, CypG",37 µM
same,prolyl-isomerase activity (raw dose-response value),CypH; dose 0.0228624 µM,0.05989 and 0.06269 and 0.07687
same,prolyl-isomerase activity (raw dose-response value),CypH; dose 0.0685871 µM,0.06674 and 0.06641 and 0.06471
same,prolyl-isomerase activity (raw dose-response value),CypH; dose 0.205761 µM,0.06507 and 0.06674 and 0.06594
same,prolyl-isomerase activity (raw dose-response value),CypH; dose 0.617284 µM,0.06577 and 0.07132 and 0.06657
same,prolyl-isomerase activity (raw dose-response value),CypH; dose 1.85185 µM,0.06049 and 0.06065 and 0.0705
same,prolyl-isomerase activity (raw dose-response value),CypH; dose 5.55556 µM,0.06127 and 0.06318 and 0.06895
same,prolyl-isomerase activity (raw dose-response value),CypH; dose 16.6667 µM,0.05909 and 0.0562 and 0.05955
same,prolyl-isomerase activity (raw dose-response value),CypH; dose 50 µM,0.04477 and 0.04513 and 0.04995
same,IC50,"CypH; prolyl-isomerase inhibition, 5 nM cyclophilin, read-out: IC50 CypH",~100 µM
same,IC50,"CypH; wild-type CypH, read-out: Wild-Type Cyclophilin Prolyl Isomerase Inhibition IC50 Values, CypH",100 µM
same,prolyl-isomerase activity (raw dose-response value),CypB; dose 0.00457247 µM,0.09192 and 0.1036 and 0.1252
same,prolyl-isomerase activity (raw dose-response value),CypB; dose 0.0137174 µM,0.09377 and 0.09227 and 0.1138
same,prolyl-isomerase activity (raw dose-response value),CypB; dose 0.0411523 µM,0.08535 and 0.07571 and 0.07363
same,prolyl-isomerase activity (raw dose-response value),CypB; dose 0.123457 µM,0.076 and 0.06873 and 0.07349
same,prolyl-isomerase activity (raw dose-response value),CypB; dose 0.37037 µM,0.05318 and 0.03953 and 0.04525
same,prolyl-isomerase activity (raw dose-response value),CypB; dose 1.11111 µM,0.03174 and 0.02714 and 0.02735
same,prolyl-isomerase activity (raw dose-response value),CypB; dose 3.33333 µM,0.02002 and 0.01837 and 0.01843
same,prolyl-isomerase activity (raw dose-response value),CypB; dose 10 µM,0.01579 and 0.01529 and 0.01363
same,IC50,"CypB; wild-type CypB, read-out: Wild-Type Cyclophilin Prolyl Isomerase Inhibition IC50 Values, CypB",0.16 µM
same,prolyl-isomerase activity (raw dose-response value),"Cyp40; Cyp40, dose 0.0228624 µM",0.06439 and 0.06966 and 0.09224
same,prolyl-isomerase activity (raw dose-response value),"Cyp40; Cyp40, dose 0.0685871 µM",0.06672 and 0.05591 and 0.0674
same,prolyl-isomerase activity (raw dose-response value),"Cyp40; Cyp40, dose 0.205761 µM",0.05415 and 0.04361 and 0.05573
same,prolyl-isomerase activity (raw dose-response value),"Cyp40; Cyp40, dose 0.617284 µM",0.04036 and 0.03584 and 0.03686
same,prolyl-isomerase activity (raw dose-response value),"Cyp40; Cyp40, dose 1.85185 µM",0.02841 and 0.02381 and 0.02316
same,prolyl-isomerase activity (raw dose-response value),"Cyp40; Cyp40, dose 5.55556 µM",0.01852 and 0.01638 and 0.01429
same,prolyl-isomerase activity (raw dose-response value),"Cyp40; Cyp40, dose 16.6667 µM",0.0159 and 0.01466 and 0.0158
same,prolyl-isomerase activity (raw dose-response value),"Cyp40; Cyp40, dose 50 µM",0.01447 and 0.01343 and 0.01173
same,IC50,"Cyp40; Wild-Type Cyclophilin Prolyl Isomerase Inhibition IC50 Values, Cyp40, wild-type Cyp40",0.26 µM
same,prolyl-isomerase activity (raw dose-response value),NKTR; dose 0.0457247 µM,0.03158 and 0.03033 and 0.03469
same,prolyl-isomerase activity (raw dose-response value),NKTR; dose 0.137174 µM,0.03164 and 0.03314 and 0.03312
same,prolyl-isomerase activity (raw dose-response value),NKTR; dose 0.411523 µM,0.0325 and 0.0338 and 0.02719
same,prolyl-isomerase activity (raw dose-response value),NKTR; dose 1.23457 µM,0.03372 and 0.0315 and 0.03341
same,prolyl-isomerase activity (raw dose-response value),NKTR; dose 3.7037 µM,0.03071 and 0.03218 and 0.03337
same,prolyl-isomerase activity (raw dose-response value),NKTR; dose 11.1111 µM,0.03272 and 0.0287 and 0.03154
same,prolyl-isomerase activity (raw dose-response value),NKTR; dose 33.3333 µM,0.034 and 0.032 and 0.03
same,prolyl-isomerase activity (raw dose-response value),NKTR; dose 100 µM,0.0243 and 0.0254 and 0.02366
same,IC50,"NKTR; prolyl-isomerase inhibition, 5 nM cyclophilin, read-out: IC50 NKTR",~100 µM
same,IC50,"NKTR; wild-type NKTR, read-out: Wild-Type Cyclophilin Prolyl Isomerase Inhibition IC50 Values, NKTR",100 µM

# — paper PMC9596378, “Discovery and molecular basis of subtype-selective cyclophilin inhibitors” (Nature Chemical Biology, 2022)
